# Reference: patent publication US8324189B2, “Use of zolendronate for the manufacture of a medicament for the treatment of bone metabolism diseases” (Novartis Pharmaceuticals Corporation, priority 2001, dated 2012)
# Tests used:
# [1] = renal adverse events (increase in serum creatinine over baseline) in clinical studies; assay type: in vivo, human
# [2] = controlled trials in cancer patients: percentage of patients showing a skeletal related adverse event; assay type: in vivo, human
# Procedure: The 4 mg dose of zoledronic acid has been determined to be clinically effective in several controlled trials in cancer patients, with placebo or the bisphosphonate pamidronate as comparator.
# [3] = tested on: prostate cancer cell lines; conditions: in vitro treatment; cited from earlier work
# [4] = tested on: subcutaneous prostate cancer cell line tumours; conditions: cited from earlier work
# [5] = pharmacokinetic study of zoledronic acid in cancer patients with bone metastases (plasma concentration, urinary excretion); assay type: in vivo, human; conditions: for Cmax: human, plasma, intravenous
# Procedure: FIG. 1. Plasma concentrations in patients after 4 mg zoledronic acid infused over 5 minutes and 15 minutes (mean data for n=5 patients in 4 mg/5 min group, n=7 patients in 4 mg/15 min group, study 503 [2]
# • 1. The volume of 100 ml containing 4 mg zoledronic acid is infused over 15 minutes as an intravenous drip, which allows the drug to be administered at a uniform and precise rate. […] The pharmacokinetic parameters derived from the individual patients' plasma concentration versus time curves, and urinary excretion of drug are tabulated below.
# [6] = renal adverse events (increase in serum creatinine over baseline) in clinical studies; assay type: in vivo, human; conditions: for incidence of renal adverse events / incidence of renal adverse events (patients with event / patients): 4 mg
# Procedure: The dose of 4 mg zoledronic acid infused over 15 minutes offers a safety advantage in terms of renal tolerability over the shorter infusion time of 5 minutes. The lower incidence of renal adverse events with zoledronic acid infused over 15 minutes versus 5 minutes is summarized below. Renal adverse events are defined as increases in a patient's serum creatinine over baseline, by ≦0.5 mg/dL if baseline <1.4 mg/dL, by ≦1 mg/dL if baseline […], by ≦2-fold irrespective of baseline value.
# [7] = tested on: osteoclastic bone resorption; conditions: animal models, cited from earlier work
# [8] = Study 10, breast cancer patients
# [9] = Study 10, multiple myeloma patients
# [10] = 4 mg infused over 5 minutes, n = 5
# [11] = 4 mg infused over 15 minutes, n = 7
# [12] = Study 10, breast cancer and multiple myeloma patients, 5 minutes infusion
# [13] = Study 10, breast cancer and multiple myeloma patients, 15 minutes infusion
# [14] = Study 11, lung cancer patients, 5 minutes infusion
# [15] = Study 11, lung cancer patients, 15 minutes infusion
# [16] = Study 39, prostate cancer patients, 5 minutes infusion
# [17] = Study 39, prostate cancer patients, 15 minutes infusion
smiles,measurement,setting,value
"NCCC(O)(P(=O)(O)O)P(=O)(O)O [pamidronate, disodium pamidronate]",renal tolerability (incidence of renal adverse events),[1]; 90 mg infused over 2 hours,8.2%
same,Percentage of patients showing a skeletal related adverse event,[2]; [8],47%
same,Percentage of patients showing a skeletal related adverse event,[2]; [9],49%
"O=P(O)(O)C(O)(Cn1ccnc1)P(=O)(O)O [zoledronic acid, 1-hydroxy-2-(imidazol-1-yl)ethane-1,1-diphosphonic acid]","renal safety versus higher doses of zoledronic acid, 8 mg and 16 mg",[1]; 4 mg infused over 15 minutes,improved renal safety
same,growth of prostate cancer cell lines,[3],significantly reduced the growth of the cell lines
same,tumour volume,[4],no significant decrease in tumour volume
same,"Differences in AUC, 15 minutes versus 5 minutes infusion",[5]; 4 mg,not significant
same,"Differences in Ae, 15 minutes versus 5 minutes infusion",[5]; 4 mg,not significant
same,"Differences in mean Cmax, 15 minutes versus 5 minutes infusion",[5]; 4 mg,statistically significant
same,AUC 0-24 h,[5]; [10],378 ± 116 ngxh/ml
same,Ae 0-24 h (amount of drug excreted in urine),[5]; [10],38.7 ± 6.34 % of dose
same,AUC 0-24 h,[5]; [11],420 ± 218 ngxh/ml
same,Ae 0-24 h (amount of drug excreted in urine),[5]; [11],37.4 ± 17.0 % of dose
same,Cmax,"[5]; 4 mg, 4 mg infused over 5 minutes, n = 5, cancer patients with bone metastases",403 ± 118 ng/mL
same,Cmax,"[5]; 4 mg, 4 mg infused over 15 minutes, n = 7, cancer patients with bone metastases",264 ± 86 ng/mL
same,renal safety versus 4 mg/5 minutes and higher zoledronic acid dose/15 minutes,[6]; 4 mg/15 minutes,improved renal safety
same,incidence of renal adverse events,[6]; [12],13.2%
same,incidence of renal adverse events (patients with event / patients),[6]; [12],36/272 patients
same,incidence of renal adverse events,[6]; [13],8.8%
same,incidence of renal adverse events (patients with event / patients),[6]; [13],24/272 patients
same,incidence of renal adverse events,"[6]; Study 10, breast cancer and multiple myeloma patients, 15 minutes infusion, listed as Zoledronic acid",8.8%
same,incidence of renal adverse events,[6]; [14],16.4%
same,incidence of renal adverse events (patients with event / patients),[6]; [14],10/61 patients
same,incidence of renal adverse events,[6]; [15],10.9%
same,incidence of renal adverse events (patients with event / patients),[6]; [15],18/165 patients
same,incidence of renal adverse events,[6]; [16],19.8%
same,incidence of renal adverse events (patients with event / patients),[6]; [16],22/111 patients
same,incidence of renal adverse events,[6]; [17],15.2%
same,incidence of renal adverse events (patients with event / patients),[6]; [17],14/78 patients
same,impact on renal function,[7]; doses inhibiting bone resorption,no appreciable impact on renal function
same,inhibition of osteoclastic bone resorption versus earlier generation bisphosphonates,[7]; doses that do not affect bone formation and mineralization,inhibits osteoclastic bone resorption more effectively than earlier generation bisphosphonates
same,efficacy versus Aredia (disodium pamidronate) 90 mg dosed over 2-4 hours,[2]; 4 mg infused over approximately 15 minutes,comparable efficacy
same,Percentage of patients showing a skeletal related adverse event,[2]; [8],42%
same,Percentage of patients showing a skeletal related adverse event,[2]; [9],47%
same,Percentage of patients showing a skeletal related adverse event,"[2]; Study 11, hypercalcemic lung cancer patients",42%
same,Percentage of patients showing a skeletal related adverse event,"[2]; Study 11, hypercalcemic patients with other solid tumors",33%
same,Percentage of patients showing a skeletal related adverse event,"[2]; Study 39, prostate cancer patients",33%
same,efficacy over placebo in the treatment of bone metastases,"[2]; double blind, placebo-controlled clinical study, prostate cancer patients",statistically significant efficacy benefit over placebo
